The numbers were not newly measured in patent US10138195B2, “Organic compounds” (Givaudan, S. A., priority 2014, dated 2018), which cites them from elsewhere.

Where two headings read alike, the source gives them in different places.

Data set [1] deals with reproductive organs of male rats.
Data set [2] concerns reproductive organs of male dogs.
In data set [3] the test system is mice.
For data set [4], the system named is guinea-pigs.
Data set [5] has as its system primates.
For data set [6] the following is noted: rats.
The conditions of data set [7]: dogs.
The test system of data set [8] is glucose synthesis and fatty acid synthesis. The conditions noted are these: in vitro (McCune et al).
Data set [9] concerns male rats. The conditions noted are these: male rats (Hunter et al.; Cagen et al.).

Take `CC(C=O)Cc1ccc(C(C)(C)C)cc1` (stereo not drawn) [Lilial™, 3-(4-tert-butylphenyl)-2-methylpropanal]: the “Effects on the reproductive organs” value in [1] and in data set [2] was “toxic effects on the reproductive organs” throughout. The Effects in studies result in data set [3], in data set [4] and in data set [5] was “No effects” each time. The Enzymatic degradation product result in data set [6] is “enzymatically degraded in rats and dogs to tert-butyl benzoic acid (t-BBA)”; in data set [7], “enzymatically degraded in rats and dogs to tert-butyl benzoic acid (t-BBA)”.

Turning to `CC(C)(C)c1ccc(C(=O)O)cc1` [tert-butyl benzoic acid], the “Effect on glucose synthesis and fatty acid synthesis” value in [8] was “inhibit glucose synthesis and fatty acid synthesis”. In [9], the Testicular effects entry is “cause testicular effects”.
